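Test compounds were applied to cells in 96-well plates for 48 hours at 5 doses. TGI: total growth inhibition.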
Key:
Test in all cases: NCI tumour cell line growth inhibition, 48 h
A549 NSCLC = system: A549 NSCLC
ACHN renal = system: ACHN renal
BT-549 breast = system: BT-549 breast
COLO 205 colon = system: COLO 205 colon
HS 578T breast = system: HS 578T breast
IGROV1 ovarian = system: IGROV1 ovarian
LOX IMVI melanoma = system: LOX IMVI melanoma
M14 melanoma = system: M14 melanoma
NCI-H23 lung = system: NCI-H23 lung
NCI/ADR-RES ovarian = system: NCI/ADR-RES ovarian
OVCAR-4 ovarian = system: OVCAR-4 ovarian
OVCAR-5 ovarian = system: OVCAR-5 ovarian
OVCAR-8 ovarian = system: OVCAR-8 ovarian
SF-539 CNS = system: SF-539 CNS
SK-OV-3 ovarian = system: SK-OV-3 ovarian
SNB-19 CNS = system: SNB-19 CNS
U251 CNS = system: U251 CNS
UACC-257 melanoma = system: UACC-257 melanoma
UO-31 renal = system: UO-31 renal
A498 renal = system: A498 renal

## COC(=O)c1cc(C(=CCC[C@H]2CC[C@@]3(C)C(CCC4C3CC[C@@]3(C)C4CC[C@@H]3C(C)CCCC(C)C)C2)c2cc(Cl)c(OC(=O)c3ccccc3)c(C(=O)OC)c2)cc(Cl)c1OC(=O)c1ccccc1 (stereo partly specified)
A549 NSCLC
  TGI: > 10 µM
ACHN renal
  TGI: > 10 µM
BT-549 breast
  TGI: > 10 µM
COLO 205 colon
  TGI: > 10 µM
HS 578T breast
  TGI: > 10 µM
IGROV1 ovarian
  TGI: > 10 µM
LOX IMVI melanoma
  TGI: > 10 µM
M14 melanoma
  TGI: > 10 µM
NCI-H23 lung
  TGI: > 10 µM
NCI/ADR-RES ovarian
  TGI: > 10 µM
OVCAR-4 ovarian
  TGI: > 10 µM
OVCAR-5 ovarian
  TGI: > 10 µM
OVCAR-8 ovarian
  TGI: > 10 µM
SF-539 CNS
  TGI: > 10 µM
SK-OV-3 ovarian
  TGI: > 10 µM
SNB-19 CNS
  TGI: > 10 µM
U251 CNS
  TGI: > 10 µM
UACC-257 melanoma
  TGI: > 10 µM
UO-31 renal
  TGI: > 10 µM

## CC[C@@]12C=CC(=S)N(CCSc3ccccc3)[C@@H]1c1c(n(S(=O)(=O)c3ccc(OC)cc3)c3ccccc13)CC2
A498 renal
  TGI: > 100 µM
A549 NSCLC
  TGI: > 100 µM
BT-549 breast
  TGI: > 100 µM
COLO 205 colon
  TGI: > 100 µM
HS 578T breast
  TGI: > 100 µM
LOX IMVI melanoma
  TGI: > 100 µM
M14 melanoma
  TGI: > 100 µM
NCI-H23 lung
  TGI: > 100 µM
NCI/ADR-RES ovarian
  TGI: > 100 µM
OVCAR-5 ovarian
  TGI: > 100 µM
OVCAR-8 ovarian
  TGI: > 100 µM
SF-539 CNS
  TGI: > 100 µM
SK-OV-3 ovarian
  TGI: > 100 µM
SNB-19 CNS
  TGI: > 100 µM
U251 CNS
  TGI: > 100 µM
UACC-257 melanoma
  TGI: > 100 µM
UO-31 renal
  TGI: > 100 µM

## CC(NC(=O)C(N)CC(=O)O)NC(=O)N(C)C(C)(C)C (stereo unspecified)
A549 NSCLC
  TGI: > 100 µM
ACHN renal
  TGI: > 100 µM
BT-549 breast
  TGI: > 100 µM
COLO 205 colon
  TGI: > 100 µM
HS 578T breast
  TGI: > 100 µM
IGROV1 ovarian
  TGI: > 100 µM
LOX IMVI melanoma
  TGI: > 100 µM
M14 melanoma
  TGI: > 100 µM
NCI-H23 lung
  TGI: > 100 µM
NCI/ADR-RES ovarian
  TGI: > 100 µM
OVCAR-4 ovarian
  TGI: > 100 µM
OVCAR-5 ovarian
  TGI: > 100 µM
OVCAR-8 ovarian
  TGI: > 100 µM
SF-539 CNS
  TGI: > 100 µM
SK-OV-3 ovarian
  TGI: > 100 µM
SNB-19 CNS
  TGI: > 100 µM
U251 CNS
  TGI: > 100 µM
UACC-257 melanoma
  TGI: > 100 µM
UO-31 renal
  TGI: > 100 µM

## C=C(C)[C@@H]1CCC2=C[C@H](CC(C)=CC3=CC(C)=C(O3)[C@@H]1OC)OC2=O
A498 renal
  TGI: > 100 µM
A549 NSCLC
  TGI: > 100 µM
ACHN renal
  TGI: > 100 µM
BT-549 breast
  TGI: > 100 µM
COLO 205 colon
  TGI: > 100 µM
HS 578T breast
  TGI: > 100 µM
IGROV1 ovarian
  TGI: > 100 µM
M14 melanoma
  TGI: > 100 µM
NCI/ADR-RES ovarian
  TGI: > 100 µM
OVCAR-4 ovarian
  TGI: > 100 µM
OVCAR-5 ovarian
  TGI: > 100 µM
OVCAR-8 ovarian
  TGI: > 100 µM
SF-539 CNS
  TGI: > 100 µM
SNB-19 CNS
  TGI: > 100 µM
U251 CNS
  TGI: > 100 µM
UACC-257 melanoma
  TGI: > 100 µM
UO-31 renal
  TGI: > 100 µM

## NS(=O)(=O)c1nnc(NS(=O)(=O)c2ccccc2C(=O)O)s1
A498 renal
  TGI: > 100 µM
A549 NSCLC
  TGI: > 100 µM
ACHN renal
  TGI: > 100 µM
BT-549 breast
  TGI: > 100 µM
COLO 205 colon
  TGI: > 100 µM
HS 578T breast
  TGI: > 100 µM
LOX IMVI melanoma
  TGI: > 100 µM
M14 melanoma
  TGI: > 100 µM
NCI-H23 lung
  TGI: > 100 µM
NCI/ADR-RES ovarian
  TGI: > 100 µM
OVCAR-4 ovarian
  TGI: > 100 µM
OVCAR-5 ovarian
  TGI: > 100 µM
OVCAR-8 ovarian
  TGI: > 100 µM
SK-OV-3 ovarian
  TGI: > 100 µM
SNB-19 CNS
  TGI: > 100 µM
U251 CNS
  TGI: > 100 µM
UACC-257 melanoma
  TGI: > 100 µM
UO-31 renal
  TGI: > 100 µM

## COc1ccc(Oc2nc(C#CC(C)(C)O)nc(Oc3ccc(OC)cc3)n2)cc1
A498 renal
  TGI: 31.6 µM
A549 NSCLC
  TGI: 28.4 µM
ACHN renal
  TGI: 3.13 µM
BT-549 breast
  TGI: 31.1 µM
COLO 205 colon
  TGI: 16.9 µM
HS 578T breast
  TGI: 82.7 µM
IGROV1 ovarian
  TGI: 18.9 µM
LOX IMVI melanoma
  TGI: 3 µM
M14 melanoma
  TGI: 4.24 µM
NCI-H23 lung
  TGI: 21.8 µM
NCI/ADR-RES ovarian
  TGI: 46.8 µM
OVCAR-5 ovarian
  TGI: 16.6 µM
OVCAR-8 ovarian
  TGI: 13.7 µM
SF-539 CNS
  TGI: 22.5 µM
SK-OV-3 ovarian
  TGI: 36 µM
SNB-19 CNS
  TGI: 41 µM
U251 CNS
  TGI: 15.6 µM
UACC-257 melanoma
  TGI: 38.2 µM
UO-31 renal
  TGI: 2.88 µM

## COc1ccc(-c2cc(-c3cc(F)c(Cl)cc3Cl)on2)cc1OC
A549 NSCLC
  TGI: > 100 µM
ACHN renal
  TGI: > 100 µM
BT-549 breast
  TGI: > 100 µM
COLO 205 colon
  TGI: 92.3 µM
HS 578T breast
  TGI: > 100 µM
IGROV1 ovarian
  TGI: > 100 µM
LOX IMVI melanoma
  TGI: > 100 µM
M14 melanoma
  TGI: > 100 µM
NCI-H23 lung
  TGI: > 100 µM
NCI/ADR-RES ovarian
  TGI: > 100 µM
OVCAR-4 ovarian
  TGI: > 100 µM
OVCAR-5 ovarian
  TGI: > 100 µM
OVCAR-8 ovarian
  TGI: > 100 µM
SF-539 CNS
  TGI: 27 µM
SK-OV-3 ovarian
  TGI: > 100 µM
SNB-19 CNS
  TGI: > 100 µM
U251 CNS
  TGI: > 100 µM
UACC-257 melanoma
  TGI: > 100 µM
UO-31 renal
  TGI: > 100 µM

## CC(=O)OCC1OC(O/C=C(\CN=[N+]=[N-])C(C)=O)C(OC(C)=O)C(OC(C)=O)C1OC(C)=O (stereo unspecified)
A498 renal
  TGI: 47.5 µM
A549 NSCLC
  TGI: 46.2 µM
ACHN renal
  TGI: 12.4 µM
BT-549 breast
  TGI: 31.2 µM
COLO 205 colon
  TGI: 3.9 µM
HS 578T breast
  TGI: > 100 µM
IGROV1 ovarian
  TGI: 39.2 µM
LOX IMVI melanoma
  TGI: 17.1 µM
M14 melanoma
  TGI: 23.1 µM
NCI-H23 lung
  TGI: 25.6 µM
NCI/ADR-RES ovarian
  TGI: > 100 µM
OVCAR-4 ovarian
  TGI: 43.1 µM
OVCAR-5 ovarian
  TGI: 32.9 µM
OVCAR-8 ovarian
  TGI: > 100 µM
SK-OV-3 ovarian
  TGI: > 100 µM
SNB-19 CNS
  TGI: 83.8 µM
U251 CNS
  TGI: 26.8 µM
UACC-257 melanoma
  TGI: 17.1 µM
UO-31 renal
  TGI: 21.4 µM

## Cc1nnc(-n2c(O)cc(=O)n(-c3ccccc3)c2=S)nc1/C=C/c1ccc(N(C)C)cc1
A498 renal
  TGI: > 55 µM
A549 NSCLC
  TGI: > 59 µM
ACHN renal
  TGI: > 49.5 µM
BT-549 breast
  TGI: > 70.7 µM
COLO 205 colon
  TGI: 21.2 µM
HS 578T breast
  TGI: 56.3 µM
IGROV1 ovarian
  TGI: 34.2 µM
LOX IMVI melanoma
  TGI: 17.5 µM
M14 melanoma
  TGI: > 100 µM
NCI-H23 lung
  TGI: 69.4 µM
NCI/ADR-RES ovarian
  TGI: > 100 µM
OVCAR-4 ovarian
  TGI: > 58.1 µM
OVCAR-5 ovarian
  TGI: > 75.3 µM
OVCAR-8 ovarian
  TGI: > 80.2 µM
SK-OV-3 ovarian
  TGI: > 72 µM
SNB-19 CNS
  TGI: > 63 µM
U251 CNS
  TGI: > 46.4 µM
UACC-257 melanoma
  TGI: > 55.8 µM
UO-31 renal
  TGI: 19.9 µM
